4 compounds from US11160865B2, “Liquid pharmaceutical composition for the delivery of active ingredients” (NOVALIQ GMBH, priority 2010, dated 2021) can be followed below.

“And” between values parts separate entries of the source, which are not always exact repeats. Equal entries are not always repeated. “Also recorded” adds a separate entry of the source. Where two headings read alike, the source gives them in different places.

In data set [1] the test system is rabbit eyes (cornea). As to the kind of experiment: Ex-vivo eye irritation test (EVEIT), healing of corneal abrasion lesions. Particulars: for Final size of corneal lesions: Example 2, after 3 days of hourly dosing 12 h/day, runs are replicates; for starting area of corneal lesions: Example 3; for outcome of corneal lesions: Example 3, after 2 or 3 days of exposure.
Protocol: (§1) The physiological tolerability of F4H5 and of a mixture of 1 wt.-% ethanol in F4H5 was evaluated in an ex-vivo eye irritation test (EVEIT) using rabbit eyes taken from freshly sacrificed animals. The eyes were fastened in chambers coupled micropump systems which continuously supplied the eyes with cultivation medium (Minimal Essential Medium, MEM T031-05) without fetal calf serum. The vitality of the eyes was monitored by regularly measuring the concentration of lactate and glucose in the chamber eluate. The corneal surface of the eyes was damaged by abrasion, using a dental ceramic abrasive (638XF, Meisinger). For each eye, four lesions of 3.0 to 4.5 mm^2 were prepared.
(§2) To evaluate the effect of F4H5 and F4H5 with 1 wt.-% ethanol on the cornea, an amount of approx. 0.25 to 0.50 μl of the respective test substance was dropped onto the centre of a cornea once every hour over a period of 12 hours, followed by a 12 hour resting period in which the cornea was submersed in culture medium to simulate a closed lid during a night phase. […] Each test was performed over a period of 3 days. The effects were observed by optical coherence tomography (OCT), by digitally determining the dimensions of the lesions after staining with fluorescein, and finally by a histological evaluation of the corneal epithelium and endothelium at the end of each experiment.
(§3) Again, minimal essential medium (MEM) was included as negative control, benzalkonium chloride solution (0.01%) as positive control, and hyaluronic acid solution (0.1%) as a reference.

For data set [2], the system named is rabbit eyes (cornea).
Protocol: as §1, §2, §3
[3] abbreviates: Example 3, within 3 days, first set of experiments.

`CCCCCC(F)(F)C(F)(F)C(F)(F)C(F)(F)F` [F4H5, 1-perfluorobutylpentane]: in the data set with rabbit eyes (cornea) [1] (Example 2), the “effect on healing of abraded corneal lesions” value (from here on “effect on healing”) was “positive effect on the healing of damaged cornea similar to that of hyaluronic acid; also recorded: Substantial healing”; the “morphological and histological evaluation of cornea at end of test” value was “healed very well”; the “penetration into the cornea by OCT imaging” value is on record as “no indication of penetration”; the “physiological tolerability” value is “better tolerated than culture medium”. The “Final size of corneal lesions” value in the data set on rabbit eyes (cornea) [1] was 0.19 mm^2 and 1.01 mm^2 and 0.06 mm^2.

With `CCCCCCCCC(F)(F)C(F)(F)C(F)(F)C(F)(F)C(F)(F)C(F)(F)F` [F6H8, 1-perfluorohexyloctane], in the data set with rabbit eyes (cornea) [2], the “outcome of corneal lesions” value was “complete remission” and the “starting area of corneal lesions” value is recorded as 10.54-16.65 mm^2.

In the case of benzalkonium chloride [BAC], in the data set on rabbit eyes (cornea) [1] (Example 2), the “effect on healing” value is listed as “rapid growth of the lesions”; the “morphological and histological evaluation of cornea at end of test” value is given as “complete disintegration of the corneal epithelium”. In the data set with rabbit eyes (cornea) [1], the “starting area of corneal lesions” value amounted to 11.23 mm^2 and the “outcome of corneal lesions” value is reported as “complete epithelial loss”.

Consider hyaluronic acid [HA], for which, in the data set on rabbit eyes (cornea) [1] (Example 2), the “effect on healing” value is given as “Substantial healing”; the “morphological and histological evaluation of cornea at end of test” value is on record as “healed very well”. Besides, in the data set with rabbit eyes (cornea) [1], the “Final size of corneal lesions” value is 0.36 mm^2 and 0.24 mm^2 and 0.00 mm^2; the “starting area of corneal lesions” value is given as 12.16 mm^2; the “outcome of corneal lesions” value was “complete healing”. Further, in the data set on rabbit eyes (cornea) [1] (setting [3]), the “area of corneal damage after treatment” value was 0.32 mm^2 and the “reduction of area of corneal damage” value was 97.4%.
